Results reported in patent US11491144B2, “Methods of treating fragile X mental retardation syndrome” (The Florida State University Research Foundation, …, priority 2018, dated 2022).

Experiments:
male FX mice = assay: Spontaneous locomotor activity assay (photobeam breaks, dark phase); type: in vivo, mouse; settings: male FX mice (B6.129P2-Fmr1tm1Cgr/J); nor-BNI 20 mg/kg or MPH 0.75 mg/kg intraperitoneal; measured between 7 pm and 7 am
Excerpt: (§1) The B6.129P2-Fmr1^tm1Cgr/J strain of mouse was used in the studies as it is a widely used mouse model of FX (Kazdoba et al. Intractable Rare Dis. Res. 2014, 3, 118), and C57BL/6J mice were used as the control strain of mice. Mice were housed 2-4 per cage and maintained on a “reversed” light cycle (lights-off at 7 am and lights-on at 7 pm). They were habituated to the investigator by extensive handing for at least one week prior to the beginning of behavioral analyses. Additionally, they were habituated to the behavioral test room for at least 30 min prior to the behavioral testing, and testing was conducted under dim red light.
(§2) The mice underwent a battery of tests starting on postnatal day 60 (P60). Behavioral analyses included measurements of spontaneous locomotor activity, working memory, attention, and social interactions. Approximately 12 male and/or female mice were used for each behavioral test.
Spontaneous locomotor activity was assayed by using a testing chamber with photobeam motion sensors (Photobeam Activity Systems, San Diego Instruments, San Diego, Calif.). […] Photobeam breaks were recorded, scored as an ambulatory event, and grouped into hourly activity measurements for statistical analysis. Cumulative activity over the 12 hour “dark phase” was calculated. […]

FX mice = assay: Cliff avoidance reflex (CAR) test for motor impulsivity; type: in vivo, mouse; settings: 20 mg/kg intraperitoneal, 30 min test, 5 min intervals
Excerpt: as §1, §2
Motor-impulsivity was assayed using a cliff avoidance reflex (CAR) test. The apparatus consists of a round Plexiglas platform (20 cm in diameter) supported by an iron rod (50 cm in height). The mouse is placed on the platform and observed over a period of 30 min. If the mouse falls off the platform during the 30 min period, it is picked up and returned to the platform to complete the test. The number of falls is recorded, and the data are analyzed at 5 min intervals.

Compound	Spontaneous locomotor activity compared to saline (male FX mice)	Time course of cliff avoidance reflex (FX mice; female FX mice)	Time course of cliff avoidance reflex (FX mice; male FX mice)
COC(=O)C(c1ccccc1)C1CCCCN1 (stereo not shown) [Methylphenidate, methylphenidate]	did not produce significant effects	–	–
Oc1ccc2c3c1O[C@H]1c4[nH]c5c(c4C[C@@]4(O)[C@@H](C2)N(CC2CC2)CC[C@]314)C[C@@]1(O)[C@H]2Cc3ccc(O)c4c3[C@@]1(CCN2CC1CC1)[C@H]5O4 [nor-BNI, norbinaltorphimine]	significant reduction in activity	improved the time course of cliff avoidance reflex	did not produce significant effects
